According to PubChem BioAssay (NCI):
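These data come from cells grown in 96-well plates and exposed to compound for 48 hours at five concentrations. TGI: total growth inhibition.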

How the values were obtained:
Test in all cases: NCI tumour cell line growth inhibition, 48 h
[1] = test system: T-47D breast
[2] = test system: NCI-H522 lung
[3] = test system: OVCAR-4 ovarian
[4] = test system: HT29 colon
[5] = test system: A549 NSCLC
[6] = test system: SK-MEL-28 melanoma
[7] = test system: EKVX NSCLC
[8] = test system: CAKI-1 renal
[9] = test system: RXF 393 renal
[10] = test system: IGROV1 ovarian
[11] = test system: A498 renal
[12] = test system: CCRF-CEM leukemia
[13] = test system: UACC-62 melanoma
[14] = test system: DU-145 prostate
[15] = test system: MALME-3M melanoma
[16] = test system: NCI-H226 lung
[17] = test system: HCC-2998 colon
[18] = test system: OVCAR-5 ovarian
[19] = test system: SK-MEL-2 melanoma
[20] = test system: ACHN renal
[21] = test system: OVCAR-3 ovarian
[22] = test system: SW-620 colon
[23] = test system: MDA-N
[24] = test system: SN12C renal
[25] = test system: RPMI-8226 leukemia
[26] = test system: SK-OV-3 ovarian
[27] = test system: NCI-H460 lung
[28] = test system: SR leukemia
[29] = test system: COLO 205 colon
[30] = test system: HCT-116 colon
[31] = test system: KM12 colon
[32] = test system: M14 melanoma
[33] = test system: SF-295 CNS
[34] = test system: UACC-257 melanoma
[35] = test system: SF-539 CNS
[36] = test system: 786-0 renal
[37] = test system: OVCAR-8 ovarian
[38] = test system: HOP-62 NSCLC
[39] = test system: LOX IMVI melanoma
[40] = test system: UO-31 renal
[41] = test system: MDA-MB-435
[42] = test system: SK-MEL-5 melanoma
[43] = test system: HL-60(TB) leukemia
[44] = test system: SF-268 CNS
[45] = test system: PC-3 prostate
[46] = test system: SNB-75 CNS
[47] = test system: NCI-H23 lung
[48] = test system: HS 578T breast
[49] = test system: MOLT-4 leukemia
[50] = test system: MCF7 breast
[51] = test system: TK-10 renal
[52] = test system: SNB-19 CNS
[53] = test system: U251 CNS
[54] = test system: NCI/ADR-RES ovarian
[55] = test system: K-562 leukemia
[56] = test system: HOP-92 NSCLC
[57] = test system: MDA-MB-231 breast
[58] = test system: BT-549 breast
[59] = test system: HCT-15 colon

O=c1oc2ccccc2c(O)c1/C=N\c1nc(-c2ccccc2)cs1
TGI [1]: 47.1 µM | TGI [2]: 5.71 µM | TGI [3]: > 100 µM | TGI [4]: 32 µM | TGI [5]: > 100 µM | TGI [6]: 31.1 µM | TGI [7]: 42.6 µM | TGI [8]: 12.2 µM | TGI [9]: 26.9 µM | TGI [10]: 27.8 µM | TGI [11]: > 100 µM | TGI [12]: 9.74 µM | TGI [13]: 19.3 µM | TGI [14]: 30.8 µM | TGI [15]: 27.3 µM | TGI [16]: 23 µM | TGI [17]: > 100 µM | TGI [18]: 35.1 µM | TGI [19]: 36 µM | TGI [20]: 24 µM | TGI [21]: 30.8 µM | TGI [22]: 16.2 µM | TGI [23]: 16 µM | TGI [24]: 23.1 µM | TGI [25]: 39.5 µM | TGI [26]: > 100 µM | TGI [27]: > 100 µM | TGI [28]: 5.31 µM | TGI [29]: 11.5 µM | TGI [30]: 22 µM | TGI [31]: 39.1 µM | TGI [32]: 16.2 µM | TGI [33]: 69.2 µM | TGI [34]: 23 µM | TGI [35]: 6.39 µM | TGI [36]: 40.2 µM | TGI [37]: > 100 µM | TGI [38]: 64.4 µM | TGI [39]: 23.6 µM | TGI [40]: 20.4 µM | TGI [41]: 20.6 µM | TGI [42]: 9.65 µM | TGI [43]: 4.01 µM | TGI [44]: 31.1 µM | TGI [45]: 31.2 µM | TGI [46]: 21.6 µM | TGI [47]: 46.9 µM | TGI [48]: 89.7 µM | TGI [49]: 7.03 µM | TGI [50]: 14.1 µM | TGI [51]: 7.58 µM | TGI [52]: 62.4 µM | TGI [53]: 24.9 µM | TGI [54]: 63.5 µM | TGI [55]: > 100 µM | TGI [56]: 25.2 µM | TGI [57]: 54.8 µM

CC(=O)CC1CCC(=O)CCC(=O)OC(CC(C)=O)CCC(=O)CCC(=O)O1 (stereo not given)
TGI [1]: > 100 µM | TGI [2]: > 100 µM | TGI [3]: > 100 µM | TGI [4]: > 100 µM | TGI [5]: > 100 µM | TGI [6]: > 100 µM | TGI [7]: > 100 µM | TGI [9]: > 100 µM | TGI [58]: > 100 µM | TGI [10]: > 100 µM | TGI [12]: > 100 µM | TGI [13]: > 100 µM | TGI [14]: > 100 µM | TGI [15]: > 100 µM | TGI [16]: > 100 µM | TGI [17]: > 100 µM | TGI [18]: > 100 µM | TGI [20]: > 100 µM | TGI [21]: > 100 µM | TGI [22]: > 100 µM | TGI [23]: > 100 µM | TGI [24]: > 100 µM | TGI [25]: > 100 µM | TGI [26]: > 100 µM | TGI [27]: > 100 µM | TGI [29]: > 100 µM | TGI [30]: > 100 µM | TGI [31]: > 100 µM | TGI [32]: > 100 µM | TGI [33]: > 100 µM | TGI [34]: > 100 µM | TGI [35]: > 100 µM | TGI [36]: > 100 µM | TGI [37]: > 100 µM | TGI [38]: > 100 µM | TGI [41]: > 100 µM | TGI [42]: > 100 µM | TGI [43]: > 100 µM | TGI [44]: > 100 µM | TGI [45]: > 100 µM | TGI [46]: > 100 µM | TGI [47]: > 100 µM | TGI [48]: > 100 µM | TGI [49]: > 100 µM | TGI [50]: > 100 µM | TGI [59]: > 100 µM | TGI [51]: > 100 µM | TGI [52]: > 100 µM | TGI [53]: > 100 µM | TGI [54]: > 100 µM | TGI [55]: > 100 µM | TGI [56]: > 100 µM | TGI [57]: > 100 µM
